Assay results as given in patent US20020107282A1, “Cosmetic composition containing an aminophenol derivative and an isoflavonoid” (L'OREAL, priority 2000, published 2002).

Tested on: fungal tyrosinase
Assay: in vitro inhibition of the activity of fungal tyrosinase (OD at 475 nm)
Assay type: biochemical
Settings: active agent alone in ethanol, C1 = 1.25 × 10^−4 M
Procedure: This test consists in measuring the absorbence (optical density OD) at 475 nm as a function of time for each of the depigmenting active agents tested. These agents are dissolved (at various concentrations) in a suitable solvent in the presence of a phosphate buffer, 1 ml of L-tyrosine at 2.0×10^−3 M in a phosphate buffer, 0.1 ml of L-Dopa at 1.0×10^−4 M in a phosphate buffer and 50 μl of a fungal tyrosinase solution at 1 g/l in a phosphate buffer, compared with a control consisting of the solvent used at the same concentration in the phosphate buffer. A percentage of inhibition is then determined by the following equation: [formula] […] These two active agents in the concentrations C1 and C2 found above are then mixed together. The theoretical percentage of inhibition of the mixture (or theoretical IC), corresponding to the sum of the percentages of inhibition observed for the individual compounds, is then calculated, and the percentage of inhibition obtained (or measured IC) is measured under the same experimental conditions as for the compounds tested separately.

## CCOC(=O)Nc1ccc(O)cc1 [N-ethoxy-carbonyl-4-aminophenol, N-ethyloxycarbonyl-4-aminophenol]
Inhibition actually obtained
  IC obtained (%): 23.5%
Inhibition value that should be observed (close to 25%)
  Theoretical IC (%): 24.8%
